Data: patent publication US20240148627A1, “[…] FOR THE SKIN” (priority 2021, published 2024)

Tested on: Vaccinia virus Elstree strain
Format: cell-based

C=O [formaldehyde]
Reference trial inactivation of the virus: 3.13E+00 log DIT C50
